# Read-outs that look alike come from different tables or passages of the source.
# Legend:
# [1] = target: T1, CYP2A6 (Homo sapiens, UniProt P11509); settings: 20 min, 60 μM
# T1 sequence (P11509 1-494): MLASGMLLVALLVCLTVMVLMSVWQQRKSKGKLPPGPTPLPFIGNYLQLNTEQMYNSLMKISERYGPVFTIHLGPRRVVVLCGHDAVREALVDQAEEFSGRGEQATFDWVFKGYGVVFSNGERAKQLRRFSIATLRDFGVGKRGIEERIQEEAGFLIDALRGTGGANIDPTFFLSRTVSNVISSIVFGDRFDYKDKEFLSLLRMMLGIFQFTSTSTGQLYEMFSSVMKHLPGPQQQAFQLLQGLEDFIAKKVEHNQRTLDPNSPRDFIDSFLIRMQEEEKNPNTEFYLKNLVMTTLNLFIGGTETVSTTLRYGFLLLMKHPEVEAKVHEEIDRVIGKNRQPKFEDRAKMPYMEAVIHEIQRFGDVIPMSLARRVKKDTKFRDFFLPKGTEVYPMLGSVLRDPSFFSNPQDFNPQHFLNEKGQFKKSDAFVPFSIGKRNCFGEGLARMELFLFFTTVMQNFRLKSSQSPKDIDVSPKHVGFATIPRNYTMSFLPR
# [2] = assay type: in vitro ADME; settings: human, human liver microsomes (sample HH54), probe flavone (60 µM), formation of diOHFM4 (3´4´diOHF)
# [3] = test system: sample HH47 liver microsomes; assay type: in vitro ADME, human; settings: substrate flavone 60 μM, inhibitor 10 μM
# [4] = target: T2, CYP2B6 (Homo sapiens, UniProt P20813); assay type: in vitro ADME
# T2 sequence (P20813 1-491): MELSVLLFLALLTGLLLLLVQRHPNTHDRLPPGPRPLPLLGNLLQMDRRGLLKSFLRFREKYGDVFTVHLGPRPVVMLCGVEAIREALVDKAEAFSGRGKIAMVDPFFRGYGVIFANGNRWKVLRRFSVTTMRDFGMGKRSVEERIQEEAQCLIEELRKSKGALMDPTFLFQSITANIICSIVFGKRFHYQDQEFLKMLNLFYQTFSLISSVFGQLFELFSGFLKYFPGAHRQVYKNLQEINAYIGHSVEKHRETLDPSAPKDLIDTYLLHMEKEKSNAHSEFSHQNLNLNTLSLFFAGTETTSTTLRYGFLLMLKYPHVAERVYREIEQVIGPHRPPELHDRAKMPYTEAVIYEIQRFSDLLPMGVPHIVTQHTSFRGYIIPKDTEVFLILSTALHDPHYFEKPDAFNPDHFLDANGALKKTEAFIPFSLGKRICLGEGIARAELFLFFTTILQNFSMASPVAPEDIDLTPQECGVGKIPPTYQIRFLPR
# [5] = guinea pigs, oral 30 mg of flavone, ref Das and Griffiths (1966), cited from earlier work
# [6] = target: CYP2C9 (Homo sapiens, UniProt P11712); assay: Oxidation of flavonoids by reconstituted recombinant P450, LC-MS/MS; assay type: in vitro ADME
# [7] = target: T1, CYP2A6; assay: as above
# [8] = test system: liver microsomes of human sample HH2; assay: Oxidation of flavonoids by human liver microsomes, sample HH2; assay type: in vitro ADME
# [9] = rats, oral or intraperitoneal administration; ref Das and Griffiths (1966); cited from earlier work
# [10] = target: CYP3A4 (Homo sapiens, UniProt P08684); assay: Oxidation of flavonoids by reconstituted recombinant P450, LC-MS/MS; assay type: in vitro ADME
# CYP3A4, sequence (P08684 whole entry): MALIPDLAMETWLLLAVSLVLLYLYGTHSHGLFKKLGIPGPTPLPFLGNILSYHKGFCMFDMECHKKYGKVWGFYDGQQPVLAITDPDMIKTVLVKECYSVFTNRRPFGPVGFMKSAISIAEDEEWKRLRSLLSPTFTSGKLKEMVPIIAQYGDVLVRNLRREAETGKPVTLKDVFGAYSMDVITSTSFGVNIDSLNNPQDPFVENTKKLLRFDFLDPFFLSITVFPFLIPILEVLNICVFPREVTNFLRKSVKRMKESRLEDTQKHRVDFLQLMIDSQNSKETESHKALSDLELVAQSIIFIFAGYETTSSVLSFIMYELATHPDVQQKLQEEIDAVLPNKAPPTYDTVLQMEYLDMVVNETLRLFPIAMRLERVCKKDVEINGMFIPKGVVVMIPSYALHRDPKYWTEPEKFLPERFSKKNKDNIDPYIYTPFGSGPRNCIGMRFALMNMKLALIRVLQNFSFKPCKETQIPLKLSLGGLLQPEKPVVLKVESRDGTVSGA
# CYP2C9, sequence (P11712 whole entry): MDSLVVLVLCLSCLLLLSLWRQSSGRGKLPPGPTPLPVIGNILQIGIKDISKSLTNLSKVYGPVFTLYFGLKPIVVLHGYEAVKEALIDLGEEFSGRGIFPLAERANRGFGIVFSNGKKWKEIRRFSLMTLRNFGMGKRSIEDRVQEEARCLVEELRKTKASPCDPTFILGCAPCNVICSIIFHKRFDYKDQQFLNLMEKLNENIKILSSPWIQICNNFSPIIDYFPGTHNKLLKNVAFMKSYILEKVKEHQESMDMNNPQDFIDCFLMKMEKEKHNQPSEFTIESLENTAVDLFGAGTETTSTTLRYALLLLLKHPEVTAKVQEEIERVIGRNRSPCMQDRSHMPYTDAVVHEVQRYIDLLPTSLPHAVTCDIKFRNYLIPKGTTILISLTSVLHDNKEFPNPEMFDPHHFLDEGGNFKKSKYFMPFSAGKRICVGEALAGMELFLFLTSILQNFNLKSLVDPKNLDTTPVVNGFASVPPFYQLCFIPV
compound,measurement,setting,value
"COc1ccc(-c2cc(=O)c3ccccc3o2)cc1 [4´MeF, 4´-methoxyflavone]",rate of O-demethylation to form M2 (4´OHF),[1],0.029 min⁻¹
same,rate of formation of M1 (3´4´diOHF),[1],0.0004 min^1
"O=c1cc(-c2ccccc2)oc2c1ccc1ccccc12 [ANF, α-naphthoflavone]",inhibition at 20 min,[2],65%
same,"inhibition of formation of OHFM5, OHFM7, 6OHF, and OHFM12",[3],inhibited
O=c1ccc2ccccc2o1 [coumarin],inhibition at 20 min,[2],75%
same,inhibition of formation of OHFM6 and OHFM9,[3],strongly inhibited
O=c1cc(-c2ccccc2)oc2ccccc12 [flavone],activity in oxidizing flavone,[4],not very active
same,urinary excretion of 4´OHF,[5]; first day,622 µg
same,urinary excretion of 4´OHF,[5]; fourth day,0 µg
same,urinary excretion of 4´OHF,[5]; second day,309 µg
same,urinary excretion of 4´OHF,[5]; third day,15 µg
same,activity in oxidizing flavone,[6],not very active
same,activity in oxidizing to OHFM6 (4´OHF) and OHFM9 (3´OHF),[7],highly active
same,"production of OHFM6, OHFM9, and diOHFM4",[8],very little
same,3´4´diOHF found in urine,[9],small amounts
same,activity in oxidizing flavone,[10],not very active

# Source: publication PMC8719450 (Xenobiotica; the fate of foreign compounds in biological …, 2021)
